{
  "source": "patent US20240335462A1",
  "about": "“SULFUR/PHOSPHORUS-CONTAINING ARYL COMPOUND AND APPLICATION THEREOF” (MEDSHINE DISCOVERY INC., priority 2021, published 2024)",
  "key": {"[1]": {"target": "Ba/F3-FL-TYK2-E957D cells (Homo sapiens, UniProt P29597, E957D, cells depend on it)", "sequence (P29597 whole entry E957D)": "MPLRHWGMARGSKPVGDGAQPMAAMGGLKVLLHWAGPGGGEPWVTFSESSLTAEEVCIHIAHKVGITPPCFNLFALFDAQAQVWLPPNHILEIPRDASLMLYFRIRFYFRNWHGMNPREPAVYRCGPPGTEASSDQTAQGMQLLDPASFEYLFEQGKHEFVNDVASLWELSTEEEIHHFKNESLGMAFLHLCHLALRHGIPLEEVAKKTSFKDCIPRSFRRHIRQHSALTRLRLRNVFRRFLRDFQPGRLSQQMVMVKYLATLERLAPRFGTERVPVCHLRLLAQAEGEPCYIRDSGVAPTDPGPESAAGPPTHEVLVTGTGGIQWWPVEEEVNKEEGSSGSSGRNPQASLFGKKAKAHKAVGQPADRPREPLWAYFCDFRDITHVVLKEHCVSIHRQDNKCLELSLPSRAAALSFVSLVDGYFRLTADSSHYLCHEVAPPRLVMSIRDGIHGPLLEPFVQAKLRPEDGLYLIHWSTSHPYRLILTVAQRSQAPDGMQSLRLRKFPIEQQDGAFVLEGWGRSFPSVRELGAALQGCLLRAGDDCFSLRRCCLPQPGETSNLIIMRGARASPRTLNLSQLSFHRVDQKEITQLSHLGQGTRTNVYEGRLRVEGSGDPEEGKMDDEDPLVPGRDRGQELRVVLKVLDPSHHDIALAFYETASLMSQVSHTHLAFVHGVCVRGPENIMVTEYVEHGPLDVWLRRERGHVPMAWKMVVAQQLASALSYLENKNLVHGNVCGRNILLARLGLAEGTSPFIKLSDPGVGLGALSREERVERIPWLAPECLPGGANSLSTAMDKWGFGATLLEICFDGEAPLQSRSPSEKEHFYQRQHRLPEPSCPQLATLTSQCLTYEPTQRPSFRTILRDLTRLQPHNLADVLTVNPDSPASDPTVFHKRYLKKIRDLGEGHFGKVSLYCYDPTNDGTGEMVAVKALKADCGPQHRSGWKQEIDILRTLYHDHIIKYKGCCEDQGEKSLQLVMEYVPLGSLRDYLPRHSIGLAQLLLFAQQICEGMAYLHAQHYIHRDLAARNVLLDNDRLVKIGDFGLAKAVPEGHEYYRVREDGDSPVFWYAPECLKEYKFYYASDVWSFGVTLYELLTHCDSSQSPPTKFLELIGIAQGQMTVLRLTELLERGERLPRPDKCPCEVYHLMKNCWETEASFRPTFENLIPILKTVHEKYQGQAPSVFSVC", "assay": "Proliferation of Ba/F3-FL-TYK2-E957D cells (CellTiter-Glo)", "type": "cell-based, mouse", "conditions": "72 hours, read-out: Half maximal inhibitory concentration IC50 for cells Ba/F3-FL-TYK2-E957D", "method_in_brief": "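Ba/F3 cells stably expressing human full-length TYK2-E957D (JH1+JH2) or TEL-TYK2 (JH1 only) were plated at 2000 cells/well with 9-point 3-fold compound dilutions (0.1% DMSO) for 72 h at 37° C. Viable cells were measured by CellTiter-Glo luminescence; IC50 came from nonlinear S-curve fits.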"}, "[2]": {"tested_on": "TYK2 signaling pathway (IFN-α/pSTAT1)", "assay": "IFN-α-induced STAT1 phosphorylation in mouse whole blood", "type": "cell-based", "conditions": "CD3+ cells", "description": "The purpose of this experiment was to detect the inhibitory effect of the compound on the JAK-STAT signaling pathway activated by IFN-α in mouse whole blood. Fresh mouse whole blood was collected and placed in a 96-well plate. The test compound was added and incubated for 1 hour, followed by stimulation with IFN-α. The corresponding STAT1 phosphorylation level in the CD3^+ cell population was analyzed using flow cytometer by means of surface antibody staining and intracellular phosphorylated antibody staining. The IFN-α-induced STAT1 phosphorylation in mouse whole blood is dependent on TYK2 activity. By detecting the inhibitory activity of the compound on downstream […] phosphorylation, the half maximal inhibitory concentration (IC50) of the compound on TYK2 signaling pathway activity can be determined.\n• a) The compound was prepared into a 10 mM solution with dimethyl sulfoxide (DMSO), and diluted in DMSO to a solution with various concentrations, 500 times the final concentration. • b) 5 μL of the diluted compound was transferred to 120 μL of phosphate buffered saline (PBS) containing 0.1% bovine serum albumin (BSA). • c) Positive and negative control groups were set up, with both finally containing 0.2% DMSO.\n• a) 67.5 μL of mouse whole blood was added to each well of a 96-well cell culture plate. • b) 3.5 μL of the diluted compound was added thereto and mixed thoroughly. • c) The plate was incubated in a 37° C. incubator for 60 minutes. • d) Mouse interferon recombinant protein was diluted 125-fold in PBS containing 0.1% BSA, and anti-mouse CD3 antibody was diluted 5-fold in PBS containing 0.1% BSA. 5 μL of diluted anti-mouse CD3 antibody and 4 μL of diluted mouse interferon recombinant protein were added to each well. • e) The plate was incubated in a 37° C. incubator for 30 minutes. • f) All cells were transferred to a 96-well deep well plate, and 1 mL of 37° C. pre-warmed 1× lysis/fixation buffer was added thereto. • g) The cells were incubated in the dark at 37° C. for 10 minutes. • h) After centrifugation at 600 g for 5 minutes, the supernatant was discarded, and the cells were washed twice with 1 mL of PBS by centrifugation. • i) 0.4 mL per well of permeabilization buffer was added to the cell pellet and mixed thoroughly. The cells were incubated in the dark at 4° C. for 30 minutes. • j) After centrifugation at 600 g for 5 minutes, the supernatant was discarded, and the cells were washed twice with 1 mL of flow cytometry staining buffer (PBS+0.2% BSA+1 mM EDTA) by centrifugation. • k) Anti-STAT1 antibody was diluted 65-fold in flow cytometry staining buffer, and added to cell-containing wells at 100 μL per well and mixed thoroughly. • l) The cells were incubated at room temperature for 40 minutes. • m) 1 mL per well of flow cytometry staining buffer was added, and the cells were washed twice by centrifugation at 600 g for 5 minutes. • n) The supernatant was discarded, and the cell pellet was resuspended in 300 μL of flow cytometry staining buffer. • o) The samples were loaded for analysis using the Beckman CytoFlex flow cytometer.\nData were analyzed using FlowJo software. Curve fitting was performed and the IC50 was calculated using GraphPad Prism 8 software."}},
  "data": [
    {"smiles": "CNC(=O)c1nnc(NC(=O)C2CC2)cc1Nc1cccc(-c2ncc(S(=N)(=O)C(C)C)cn2)c1OC", "note": "(single isomer, unassigned) [WX-011A]", "values": [
      {"measurement": "GI50", "setting": "[1]", "result": 5.3, "unit": "nM"},
      {"measurement": "IC50", "setting": "[2]", "result": 148, "unit": "nM"}
    ]},
    {"smiles": "CNC(=O)c1nnc(NC(=O)C2CC2)cc1Nc1cccc(-c2ncc(S(=N)(=O)C(C)C)cn2)c1OC", "note": "(single isomer, unassigned) [WX-011B]", "values": [
      {"measurement": "GI50", "setting": "[1]", "result": 3.3, "unit": "nM"},
      {"measurement": "IC50", "setting": "[2]", "result": 375, "unit": "nM"}
    ]},
    {"smiles": "CNC(=O)c1nnc(NC(=O)C2CC2)cc1Nc1cccc(-c2ccc(S(=N)(=O)C(C)C)cn2)c1OC", "note": "(single isomer, unassigned) [WX-012A]", "values": [
      {"measurement": "GI50", "setting": "[1]", "result": 3.3, "unit": "nM"}
    ]},
    {"smiles": "CNC(=O)c1nnc(NC(=O)C2CC2)cc1Nc1cccc(-c2ccc(S(=N)(=O)C(C)C)cn2)c1OC", "note": "(single isomer, unassigned) [WX-012B]", "values": [
      {"measurement": "GI50", "setting": "[1]", "result": 2.4, "unit": "nM"},
      {"measurement": "IC50", "setting": "[2]", "result": 419, "unit": "nM"}
    ]},
    {"smiles": "CNC(=O)c1cnc(NC(=O)C2CC2)cc1Nc1cccc(-c2ccc(S(=O)(=O)C(C)C)cn2)c1OC.Cl", "note": "[Hydrochloride of WX-020]", "values": [
      {"measurement": "GI50", "setting": "[1]", "result": 1.5, "unit": "nM"}
    ]},
    {"smiles": "CNC(=O)c1cnc(NC(=O)C2CC2)cc1Nc1cccc(-c2ncc(S(=O)(=O)C(C)C)cn2)c1OC", "note": "[WX-019]", "values": [
      {"measurement": "GI50", "setting": "[1]", "result": 2, "unit": "nM"},
      {"measurement": "IC50", "setting": "[2]", "result": 427, "unit": "nM"}
    ]},
    {"smiles": "CNC(=O)c1cnc(NC(=O)C2CC2)cc1Nc1cccc(-c2ccc(S(=O)(=O)C(C)C)cn2)c1OC", "note": "[WX-020]", "values": [
      {"measurement": "IC50", "setting": "[2]", "result": 369, "unit": "nM"}
    ]},
    {"smiles": "CNC(=O)c1nnc(NC(=O)C2CC2)cc1Nc1cccc(-c2ccc(P(=O)(C3CC3)C3CC3)cn2)c1OC", "note": "[WX-021]", "values": [
      {"measurement": "GI50", "setting": "[1]", "result": 2.5, "unit": "nM"},
      {"measurement": "IC50", "setting": "[2]", "result": 452, "unit": "nM"}
    ]}
  ]
}
